The experiment has as its system KB. Briefly: Cytotoxicity against human KB cells. It is filed as functional. Particulars: read-out: ED50 (the source's name).

On to `C=C1C(=O)O[C@@H]2[C@H]1CC[C@H](C)[C@@H]1C[C@@H](O)C(=O)[C@@]21C`, for which the EC50 was 10 µM.

Turning to `C=C1C(=O)O[C@H]2[C@H]1[C@H](OC(=O)/C(C)=C\C)C[C@@]1(CO1)[C@@H]1[C@H](O)[C@H]3O[C@@]3(C)[C@]21O`, the EC50 was determined as 0.63 µM.

Consider `C=C1C(=O)O[C@@H]2C3O[C@]3(C)CC/C=C(\C)CC[C@@H]12` (some centres undefined), for which the EC50 turned out to be 5.3 µM.

With `C=C1C(=O)O[C@@H]2/C=C(\CO)CC/C=C(\CO)C[C@H](OC(=O)C(C)C)[C@@H]12` [ALATOLIDE], the EC50 came to 4 µM.

In the case of `C=C1C(=O)O[C@@H]2[C@H]1CC[C@H](C)[C@@H]1C=CC(=O)[C@@]21C` [AMBROSIN], the EC50 was determined as 1.83 µM.

As for `C=C1C(=O)O[C@H]2C[C@@]3(CO3)[C@@H]3C[C@H](OC(C)=O)C(=C)[C@]3(O)C[C@H]12` [ARCTOLIDE], the EC50 turned out to be 29 µM.

As for `C=C1C(=O)O[C@H]2C[C@@H](C)[C@@H]3C=CC(=O)[C@@]3(C)C[C@H]12` [AROMATICIN], the EC50 came to 1.38 µM.

Consider `C=C1C(=O)O[C@H]2C/C(C)=C/C[C@@H](OC(C)=O)/C(C)=C/[C@@H](OC(C)=O)[C@@H]12` [CHAMMISSONIN DIACETATE], for which the EC50 was 6.12 µM.

Regarding `C=C1C(=O)O[C@@H]2[C@H]1CC[C@H](C)[C@]1(O)CCC(=O)[C@@]21C` [CORONOPILIN], the EC50 worked out at 5.49 µM.

For `C=C1C(=O)O[C@@H]2/C=C(\C)CC/C=C(\C)CC[C@@H]12` [COSTUNOLIDE], the EC50 was determined as 2.46 µM.

On to `C=C1C(=O)O[C@H]2/C=C(\C)C(=O)C/C=C(/C)C[C@H](OC(=O)/C(C)=C\C)[C@@H]12` [DEHYDRONOBILIN], for which the EC50 was 2.7 µM.

`C=C1C(=O)O[C@@H]2[C@H]3C(CO)=CC(=O)C3=C(C)CC[C@@H]12` [DEOXYLACTUCIN]: the EC50 came to 3.1 µM.

In the case of `C=C1C(=O)O[C@@H]2[C@H]1[C@@H](O)C[C@H](C)[C@@H]1CCC(=O)[C@@]21C` [DESACETYLCONFERTIFLORIN], the EC50 was 8.71 µM.

In the case of `C=C1C(=O)O[C@H]2[C@H]1[C@@H](OC(=O)C=C(C)C)CC1=C[C@@H](C[C@@]3(C)O[C@H]23)OC1=O` [ELEPHANTIN], the EC50 is 3.22 µM.

Take `C=C1C(=O)O[C@H]2CC3=C[C@@H](C[C@]4(C)O[C@@H]4[C@@H](O)[C@H]12)OC3=O` [ELEPHANTOL]: the EC50 turned out to be 123 µM.

With `C=C(C)C(=O)O[C@H]1CC2=C[C@@H](C[C@@]3(C)O[C@@H]3[C@H]3OC(=O)C(=C)[C@@H]31)OC2=O` [ELEPHANTOPIN], the EC50 came out at 2.51 µM.

`C=C1C(=O)O[C@@H]2/C=C(/C)[C@@H](O)C[C@H]3O[C@]3(C)C[C@@H](OC(=O)/C(C)=C\C)[C@@H]12` [EPOXYNOBILIN]: the EC50 is 0.99 µM.

Consider `C=C1[C@H](O)C[C@H](O)[C@]2(C)CC[C@@H]3[C@H](OC(=O)[C@H]3C)[C@@H]12` [ERIVANIN], for which the EC50 came out at 1.1 µM.

On to `C=C1C(=O)O[C@H]2[C@H]1[C@H](OC(=O)/C(C)=C\C)C[C@](O)(CCl)[C@@H]1[C@H](OC(C)=O)C=C(C)[C@]21O` [EUPACHLORIN ACETATE], for which the EC50 was 0.35 µM.

Consider `C=C1C(=O)O[C@H]2[C@H]1[C@H](OC(=O)/C(C)=C\C)C[C@](O)(CCl)[C@@H]1[C@H](O)C=C(C)[C@]21O` [EUPACHLORIN], for which the EC50 amounted to 0.51 µM.

In the case of `C=C1C(=O)O[C@H]2[C@H]1[C@H](OC(=O)/C(C)=C\C)C[C@](O)(CCl)[C@@H]1[C@H](O)[C@H]3O[C@@]3(C)[C@]21O` [EUPACHLOROXIN], the EC50 turned out to be 8.39 µM.

For `C=C1C(=O)O[C@@H]2/C=C(/CO)[C@@H](OC(C)=O)C[C@H](O)/C(C)=C\[C@@H](OC(=O)/C(C)=C/C)[C@@H]12` [EUPACUNOLIN], the EC50 was determined as 8.8 µM.

As to `C=C1C(=O)O[C@@H]2/C=C(/C)[C@@H](OC(C)=O)C[C@H](O)/C(C)=C\[C@@H](OC(=O)[C@]3(C)O[C@@H]3C)[C@@H]12` [EUPACUNOXIN], the EC50 stood at 5 µM.

With `C=C1C(=O)O[C@H]2[C@H]1[C@H](OC(=O)/C(C)=C\C)C[C@]1(CO1)[C@@H]1[C@H](OC(C)=O)C=C(C)[C@]21O` [EUPAROTIN ACETATE], the EC50 was found to be 0.53 µM.

With `C=C1C(=O)O[C@H]2[C@H]1[C@H](OC(=O)/C(C)=C/C)C[C@]1(CO1)[C@@H]1[C@H](O)C=C(C)[C@]21O` [EUPAROTIN], the EC50 amounted to 0.56 µM.

For the compound `C=C1C(=O)O[C@@H]2/C=C(\C)[C@@H](OC(C)=O)C/C=C(/C)C(O)[C@@H](OC(=O)/C(C)=C\C)[C@@H]12` (some centres undefined) [EUPATOCUNIN], the EC50 came out at 0.27 µM.

On to `C=C1C(=O)O[C@@H]2/C=C(\C)[C@@H](OC(C)=O)C/C=C(\C)C(OC(=O)[C@]3(C)O[C@@H]3C)C(O)[C@@H]12` (some centres undefined) [EUPATOCUNOXIN], for which the EC50 worked out at 4.04 µM.

Take `C=C1C(=O)O[C@@H]2/C=C(\C)CC/C=C(\C)C[C@@H](O)[C@@H]12` [EUPATOLIDE]: the EC50 stood at 5 µM.

For the compound `C=C1C(=O)O[C@@H]2/C=C(\C)CC/C=C(/C)C[C@@H](OC(=O)/C(=C/CO)CO)[C@@H]12` [EUPATORIOPICRIN], the EC50 stood at 3.3 µM.

As to `C=C1C(=O)O[C@H]2[C@H]1[C@H](OC(=O)/C(C)=C\C)C[C@]1(CO1)[C@@H]1[C@H](O)[C@H]3O[C@@]3(C)[C@]21O` [EUPATOROXIN], the EC50 is 7.14 µM.

As to `C=C1C(=O)O[C@H]2[C@H]1[C@H](OC(=O)/C(C)=C\C)CC(=C)[C@@H]1[C@H](O)[C@H]3O[C@@]3(C)[C@@]12O` [EUPATUNDIN], the EC50 stood at 1.04 µM.

Take `C=C1C(=O)O[C@H]2C=C(C)[C@H]3[C@@H](OC(C)=O)C[C@@](C)(O)[C@@H]3C[C@H]12` [GAILLARDIN]: the EC50 amounted to 7.52 µM.

`C=C1C(=O)O[C@@H]2C[C@@H](C)[C@@H]3C=CC(=O)[C@@]3(C)[C@@H](O)[C@H]12` [HELENALIN]: the EC50 was 0.76 µM.

`C=C1C(=O)O[C@H]2C[C@@]3(C)O[C@@H]3CC/C(C(=O)OC)=C\C[C@H]12` [HIRUSUTOLIDE]: the EC50 was 7 µM.

For `C=C1CC(OC(=O)/C(C)=C/C)C2C(=C)C(=O)OC2/C=C(\C)C(O)CC1O` (centres undefined) [HYDROXYISONOBILIN], the EC50 stood at 3.7 µM.

As for `C=C1C(=O)O[C@@H]2[C@H]3C(CO)=CC(=O)C3=C(C)C[C@@H](O)[C@@H]12` [LACTUCIN], the EC50 came out at 260 µM.

For the compound `C=C1C(=O)O[C@@H]2/C=C(/C)[C@@]3(O)C=C[C@@](C)(C[C@@H](OC(=O)/C(=C\C)COC(C)=O)[C@@H]12)O3` [LIATRIN], the EC50 worked out at 3.93 µM.

In the case of `C=C1C(=O)O[C@H]2C[C@@H](C)[C@@H]3C=CC(=O)[C@@]3(C)[C@H](OC(C)=O)[C@H]12` [LINIFOLIN A], the EC50 was 2 µM.

Consider `C=C1C(=O)O[C@H]2C[C@@H](C)[C@@H]3C=CC(=O)[C@@]3(C)[C@H](O)[C@H]12` [MEXICANIN I], for which the EC50 worked out at 1.26 µM.

In the case of `C=C1C(=O)O[C@@H]2[C@H]1CC[C@H](C)[C@]1(O)C=CC(=O)[C@@]21C` [PARTHENIN], the EC50 stood at 1.3 µM.

For `C=C1C(=O)O[C@@H]2/C=C(\CO)CC/C=C(\C)C[C@H](O)[C@@H]12` [SALONITENOLIDE], the EC50 came to 9.1 µM.

For the compound `C=C1C(=O)O[C@@H]2/C=C(\C)C[C@H](O)/C=C(\C)CC[C@@H]12` [TAMAULIPIN A], the EC50 was determined as 5.08 µM.

Regarding `C=C1C(=O)O[C@@H]2/C=C(\C)[C@H](O)C/C=C(\C)CC[C@@H]12` [TAMAULIPIN B], the EC50 worked out at 10.5 µM.

For the compound `C=C[C@@]12COC(=O)C(=C)[C@@H]1[C@H]1OC(=O)C(=C)[C@@H]1[C@@H](OC(=O)C(=C)CO)C2` [VERNODALIN], the EC50 is 5 µM.

Consider `C=C1[C@@H]2[C@H]3OC(=O)C(=C)[C@@H]3CCC(=C)[C@H]2C[C@@H]1OC(=O)C=C(C)C` [VERNOFLEXIN], for which the EC50 was 4.3 µM.

In the case of `C=C1[C@@H]2[C@H]3OC(=O)C(=C)[C@@H]3CCC(=C)[C@@H]2C[C@@H]1O[C@@H]1O[C@H](COC(C)=O)[C@@H](OC(C)=O)[C@H](OC(C)=O)[C@H]1OC(C)=O` [VERNOFLEXUOSIDE TETRA ACETYL], the EC50 is 8.75 µM.

For the compound `C=C1[C@@H]2[C@H]3OC(=O)C(=C)[C@@H]3CCC(=C)[C@@H]2C[C@@H]1O[C@@H]1O[C@H](CO)[C@@H](O)[C@H](O)[C@H]1O` [VERNOFLEXUOSIDE], the EC50 was found to be 19 µM.

Turning to `C=C[C@@]12COC(=O)C(=C)[C@@H]1[C@H]1OC(=O)C(=C)[C@@H]1[C@@H](OC(C)=O)C2` [VERNOLEPIN ACETATE], the EC50 was 8.49 µM.

For `C=C[C@@]12COC(=O)C(=C)[C@@H]1[C@H]1OC(=O)C(=C)[C@@H]1[C@@H](OC(=O)C(=C)C)C2` [VERNOLEPIN METHACRYLATE], the EC50 stood at 1.22 µM.

`C=C[C@@]12COC(=O)C(=C)[C@@H]1[C@H]1OC(=O)C(=C)[C@@H]1[C@@H](O)C2` [VERNOLEPIN]: the EC50 stood at 6.52 µM.

Turning to `C=C[C@]12COC(=O)C(=C)[C@H]1[C@H](OC(C)=O)[C@H]1C(=C)C(=O)O[C@@H]1C2` [VERNOMENIN ACETATE], the EC50 came to 26.2 µM.

For the compound `C=C[C@@]12COC(=O)C(=C)[C@@H]1[C@@H](O)[C@@H]1C(=C)C(=O)O[C@H]1C2` [VERNOMENIN], the EC50 was 127 µM.

For `C=C1C(=O)O[C@@H]2/C=C3\CCC4OC4(C[C@H](OC(=O)C(C)C)[C@@H]12)C(O)OC3` (some centres undefined) [VERNOMYGDIN], the EC50 was determined as 4.12 µM.

As to `C=C1C(=O)O[C@H]2C[C@H](C)[C@@H]3CC(=O)C(C)=C3C[C@H]12` [XERANTOLIDE], the EC50 was determined as 6.1 µM.

The values above are taken from ChEMBL document CHEMBL1158183, “Use of self-organizing maps and molecular descriptors to predict the cytotoxic activity of sesquiterpene lactones” (2008).
